Test results: patent publication US5637570A, “Disubstituted and trisubstituted derivatives of 2,3:4,6-di-O-isopropylidene-α-L-xylo-2-hexulofuranosonic acid having anti-cancer, anti-inflammatory and anti-proliferative activity” (Chemora Pharmochem, priority 1995, dated 1997)
Read-outs that look alike come from different tables or passages of the source.

Tests used:
[1] = system: T cells (splenic T cell proliferation, co-cultured spleen cells from two strains of mice); test: Mixed lymphocyte response (MLR); format: cell-based; details: Mus musculus, Anti-inflammatory/Anti-proliferative Activity
Text: i Mixed lymphocyte response (MLR).
(§1) The MLR assay measures the effects of a study compound on the activation and antigen presentation of T-lymphocytes, therefore determining immunomodulatory properties. The mouse spleen cell mitogen-induced blastogenesis and the BUD-8 human fibroblast proliferation assays measure the effects of the compounds of the present invention on cellular proliferation of cells involved in the pathogenesis of autoimmune diseases. These two assays are appropriate as screens to ascertain anti-inflammatory and/or autoimmune diseases.
The MLR is a classical assay used to measure T cell function by studying the proliferation response of T cells which are activated in vitro by genetically disparate stimulator cells. This is accomplished by co-culturing spleen cells from two different strains of mice. Splenic T cell proliferation occurs as a result of cellular activation signals generated by the ongoing cellular interactions.
(§2) The detailed experimental procedure for the above-mentioned assays is described in detail in U.S. Pat. Nos. 5,360,790 and 5,367,062 incorporated herein by reference.

[2] = system: mouse spleen cell (T-lymphocyte); test: Concanavalin A (CON-A) assay, mouse spleen cell mitogen induced blastogenesis; format: cell-based; details: Anti-inflammatory/Anti-proliferative Activity
Text: iii Concanavalin A assay (the mouse spleen cell mitogen induced blastogenesis).
as §1
It is known that the induction and maintenance of most inflammatory diseases are typically due to the unrestricted activity of T-lymphocytes. Therefore, it is advantageous to identify compounds which are modulators of T-lymphocyte activity for eventual use in the regulation of inflammatory diseases, including acquired immune deficiency syndrome, psoriasis, systemic lupus, erythromatosus, and rheumatoid arthritis.
as §2

[3] = system: BUD-8 human fibroblast; test: BUD-8 human cell line fibroblast proliferation assay (FIB.); format: cell-based; details: Anti-inflammatory/Anti-proliferative Activity
Text: ii BUD-8 human cell line fibroblast proliferation assay.
as §1
The skin cell fibroblast line, BUD-8, was originally derived from the normal skin of a person and can now be obtained from the American Type Culture Collection, Rockville, Md.
as §2

[4] = system: human tumor cell lines (approximately 60); test: NCI in vitro human tumor cell line screen (SRB), mean graph midpoints over all cell lines; format: cell-based
Experimental: In performing in vitro human tumor cell line assay, a total of approximately 60 human tumor cell lines derived from ten cancer types (leukemia, non-small cell lung cancer, small cell lung cancer, colon cancer, CNS cancer, melanoma, ovarian cancer, renal cancer, breast cancer and prostate cancer) were used in this assay. Compounds were tested at different concentrations against every cell line. All lines are inoculated into a series of standard 96-well microtiter plates on day 0, in the majority of cases at 20,000 cells/well, and then pre-incubated in the absence of testing agent for 24 hours. A testing agent was then added in five 10-fold dilutions and incubated for a further period of 48 hours. Following this, the cells are fixed in situ, washed, and dried. Sulforhodamine B (SRB, protein binding dye) is added, followed by further washing and drying of the stained adherent cell mass. The bound stain is solubilized and measured spectrophotometrically on an automatic plate reader.
For each compound, dose response curves for each cell line were measured with five different drug concentrations, and the concentration causing 50% cell growth inhibition (GI50), total cell growth inhibition (TGI, 0% growth), and 50% cell death (LC50, -50% growth) compared with the control was calculated. […] In these graphs, the mean logarithmic value of GI50 in all cell lines for each tested compound is used as the midpoint of that bar graph.

[5] = system: P388 Murine Leukemia; test: P388 Murine Leukemia in vivo
Experimental: Two of the compounds of the present invention (Ic and Im) were also tested against P388 Murine Leukemia.

[6] = system: SK-MEL-28 Melanoma Xenografts; test: Early Stage SK-MEL-28 Melanoma Xenografts; details: for Drug Deaths: of 6 mice; for Opt. % T/C: >40 considered inactive
Experimental: (§3) In this in vivo model Murine or human tumor fragments (30 mg) are implanted subcutaneously into the axillary region of pathogen-free immunocompetent or immunodefficient mice, respectively, on experimental day 0. Test agent treatment is initiated either on the day which is historically associated with the start of tumor growth, or when the tumor is palpable. Tumor size and body weights are obtained approximately two times per week. Tumor weights are calculated from caliper measurements of tumor dimensions in mm using the formula for a prolate ellipsoid:
(§4) (L×W^2)/2; where L is the longer of the 2 measurements
(§5) Generally, tumor size is monitored until an upper weight limit of 500 mg is attained.

[7] = system: COLO 205 Colon Tumor Xenografts; test: Early Stage SC COLO 205 Colon Tumor Xenografts; details: for Drug Deaths: of 6 mice; for Opt. % T/C: >40 considered inactive
Experimental: as §3, §4, §5

[8] = system: UACC-62 Melanoma Xenografts; test: Early Stage Subcutaneous Tumor Model UACC-62 Melanoma Xenografts; details: for Drug Deaths: of 6 mice; for Opt. % T/C: >40 considered inactive
Experimental: as §3, §4, §5

[9] = Ic 60, 40 and 27 mg/kg/dose, Im 120, 80 and 54 mg/kg/dose
[10] = 130 mg/kg/dose IP QD × 5, day 3
[11] = 130 mg/kg/dose IP Q4D × 3, day 7

CCCCCCCCCCCCOC[C@@]12O[C@@H](C)[C@@H](OCCN3CCCCC3)[C@@H]1OC(C)(C)O2 [Im, 2,3-O-Isopropylidene-6-deoxy-1-O-dodecyl-4-O-ethylpiperidinyl-α-L-xylo-2-hexulofuranose]
IC50 [1]: < 1 µM
IC50 [2]: 7.4 µM
IC50 [3]: 3.6 µM
CC50 ([4]; Homo sapiens, 50% cell death (-50% growth), average of all cell lines, 48 h, read-out: log10 LC50 mean graph midpoint (converted)): 50.1 µM
GI50 ([4]; Homo sapiens, 50% cell growth inhibition, average of all cell lines, 48 h, read-out: GI50 (average)): 20.2 µM
GI50 ([4]; Homo sapiens, average of all cell lines, log10 of molar concentration, 48 h, read-out: log10 I50 (log10 GI50 mean graph midpoint) (converted)): 9.77 µM
IC (TGI) ([4]; Homo sapiens, total cell growth inhibition (0% growth), average of all cell lines, 48 h, read-out: log10 TGI mean graph midpoint (converted)): 22.9 µM
in vitro activity in words ([4]; various in vitro cell lines, IC50, average GI50, mean graph pattern): significant activity in various in vitro cell lines
antitumor activity [5, 9]: only slight antitumor activity
toxicity [5, 9]: toxic at the higher dose levels
maximally tolerated dose ([5]; mouse, in vivo): a maximally tolerated dose was not achieved
Drug Deaths ([6]; 54 mg/kg/dose IP QD × 5, day 3): 1
Opt. % T/C ([6]; 54 mg/kg/dose IP QD × 5, day 3, optimum on day 16): 47%
Drug Deaths ([6]; 90 mg/kg/dose IP QD × 5, day 3): 2
Opt. % T/C [6, 10]: Toxic
Drug Deaths [6, 10]: 5
Opt. % T/C ([6]; Im 90 mg/kg/dose IP QD × 5, day 3, optimum on day 9): 49%
Drug Deaths ([7]; 54 mg/kg/dose IP Q4D × 3, day 7): 0
Opt. % T/C ([7]; 54 mg/kg/dose IP Q4D × 3, day 7, optimum on day 36): 44%
Drug Deaths ([7]; 90 mg/kg/dose IP Q4D × 3, day 7): 0
Opt. % T/C [7, 11]: Toxic
Drug Deaths [7, 11]: 4
Opt. % T/C ([7]; Im 90 mg/kg/dose IP Q4D × 3, day 7, optimum on day 29): 45%
Drug Deaths ([8]; 54 mg/kg/dose IP Q4D × 3, day 6): 0
Opt. % T/C ([8]; 54 mg/kg/dose IP Q4D × 3, day 6, optimum on day 9): 51%
Drug Deaths ([8]; 90 mg/kg/dose IP Q4D × 3, day 6): 0
Opt. % T/C ([8]; 90 mg/kg/dose IP Q4D × 3, day 6, optimum on day 16): 44%
Drug Deaths ([8]; 130 mg/kg/dose IP Q4D × 3, day 6): 1
Opt. % T/C ([8]; 130 mg/kg/dose IP Q4D × 3, day 6, optimum on day 16): 42%
